Laboratory results from PubChem BioAssay AID248 (DTP/NCI, 2004).
Where “and” joins values, the source holds several entries; their conditions need not be identical. Equal values may be shown once. Inconclusive results and toxic doses are left out. Cut-off read from the data, not from the text of the source: active = T/C of 150% or more; inactive = T/C below 125%.

Tested on: L1210 leukemia ip in BDF1 mice, survival T/C
Experiment: NCI In Vivo Anticancer Drug Screen. Data for tumor model L1210 Leukemia (intraperitoneal) in B6D2F1 (BDF1) mice
Details: endpoint: mean survival time, higher = longer survival
Procedure, shortened: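 Value reflects the ratio of survival in compound-treated mice to survival in vehicle-treated controls, with both groups carrying the same transplanted tumor.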

[1] = dose: 100.0 mg/kg/injection, schedule: Q01DX001 (ip), vehicle: saline
[2] = dose: 200.0 mg/kg/injection, schedule: Q01DX001 (ip), vehicle: saline
[3] = dose: 400.0 mg/kg/injection, schedule: Q01DX001 (ip), vehicle: saline
[4] = dose: 100.0 mg/kg/injection, schedule: Q04DX003 (ip), vehicle: Klucel (hydroxypropylcellulose) (HPC)
[5] = dose: 200.0 mg/kg/injection, schedule: Q04DX003 (ip), vehicle: Klucel (hydroxypropylcellulose) (HPC)
[6] = dose: 75.0 mg/kg/injection, schedule: Q01DX001 (ip), vehicle: saline
[7] = dose: 150.0 mg/kg/injection, schedule: Q01DX001 (ip), vehicle: saline
[8] = dose: 100.0 mg/kg/injection, schedule: Q01DX009 (ip), vehicle: Klucel (hydroxypropylcellulose) (HPC)
[9] = dose: 100.0 mg/kg/injection, schedule: Q04DX003 (ip), vehicle: saline with Tween-80
[10] = dose: 200.0 mg/kg/injection, schedule: Q04DX003 (ip), vehicle: saline with Tween-80
[11] = dose: 50.0 mg/kg/injection, schedule: Q01DX009 (ip), vehicle: saline with Tween-80
[12] = dose: 50.0 mg/kg/injection, schedule: Q01DX001 (ip), vehicle: saline

Measured: T/C

COC1OC(CO)C(O)C1OS(C)(=O)=O (stereo not given)
inactive: [1] 101 % of control | [2] 103 % of control | [3] 101 % of control

O=C(O)C1CC(n2cnc3c(=O)[nH]cnc32)CN1 (stereo not given)
inactive: dose: 50.0 mg/kg/injection, schedule: Q04DX002 (ip), vehicle: saline with Tween-80 102 % of control | dose: 100.0 mg/kg/injection, schedule: Q04DX002 (ip), vehicle: saline with Tween-80 98 % of control

O=c1cc(S(=O)(=O)c2ccccc2)[nH]c(=O)[nH]1
inactive: [4] 97 % of control | [5] 101 % of control

CC(C)CC1(C(C)C)C(=O)NC(=O)NC1=O
inactive: [6] 89 % of control | [7] 98 % of control

c1ncc2[nH]cnc2n1
inactive: dose: 27.33 mg/kg/injection, schedule: Q01DX Z (ip), vehicle: carboxymethylcellulose (CMC) 96 % of control | dose: 54.67 mg/kg/injection, schedule: Q01DX Z (ip), vehicle: carboxymethylcellulose (CMC) 96 % of control | dose: 109.35 mg/kg/injection, schedule: Q01DX Z (ip), vehicle: carboxymethylcellulose (CMC) 108 % of control | dose: 218.7 mg/kg/injection, schedule: Q01DX Z (ip), vehicle: carboxymethylcellulose (CMC) 98 % of control

COc1ccc(/C=C(/C(=O)c2ccc(OCCN3CCCC3)cc2)c2ccccc2)cc1OC
inactive: dose: 100.0 mg/kg/injection, schedule: Q04DX003 (sc), vehicle: olive oil, sesame oil, peanut oil 101 % of control | dose: 200.0 mg/kg/injection, schedule: Q04DX003 (sc), vehicle: olive oil, sesame oil, peanut oil 98 % of control | dose: 400.0 mg/kg/injection, schedule: Q04DX003 (sc), vehicle: olive oil, sesame oil, peanut oil 97 % of control

COc1ccc2c[n+](C)c3c4cc(OC)c(OC)cc4ccc3c2c1
inactive: dose: 6.25 mg/kg/injection, schedule: Q04DX003 (ip), vehicle: saline with Tween-80 105 % of control | dose: 12.5 mg/kg/injection, schedule: Q04DX003 (ip), vehicle: saline with Tween-80 105 % of control | dose: 25.0 mg/kg/injection, schedule: Q04DX003 (ip), vehicle: saline with Tween-80 105 % of control

C[SH+]c1ccccc1N=Cc1ccccn1.C[SH+]c1ccccc1N=Cc1ccccn1.[Ni+2].[O-][Cl+3]([O-])([O-])[O-]
inactive: dose: 88.8 mg/kg/injection, schedule: Q01DX001 (ip), vehicle: saline 93 % of control and 96 % of control | [1] 105 % of control | dose: 133.4 mg/kg/injection, schedule: Q01DX001 (ip), vehicle: saline 96 % of control and 105 % of control | dose: 300.0 mg/kg/injection, schedule: Q01DX001 (ip), vehicle: saline 95 % of control and 102 % of control

NC(=S)N/N=C\C(=N/NC(N)=S)C(O)CO (stereo not given)
inactive: [6] 97 % of control | [7] 101 % of control

CS(=O)(=O)NC[C@H](Cl)[C@@H](Cl)CNS(C)(=O)=O
inactive: [1] 100 % of control | [2] 102 % of control | [3] 91 % of control

O=C(N/N=C(\C=N\NC(=O)c1ccccc1)CC(O)CO)c1ccccc1 (stereo not given)
inactive: dose: 25.0 mg/kg/injection, schedule: Q01DX009 (ip), vehicle: Klucel (hydroxypropylcellulose) (HPC) 93 % of control | dose: 50.0 mg/kg/injection, schedule: Q01DX009 (ip), vehicle: Klucel (hydroxypropylcellulose) (HPC) 91 % of control | [8] 91 % of control | [9] 94 % of control | [10] 93 % of control

CC/C(=C/c1cccc(OC)c1OC)[N+](=O)[O-]
inactive: dose: 12.5 mg/kg/injection, schedule: Q01DX009 (ip), vehicle: saline with Tween-80 105 % of control | dose: 25.0 mg/kg/injection, schedule: Q01DX009 (ip), vehicle: saline with Tween-80 98 % of control | [11] 96 % of control | [9] 107 % of control | [10] 90 % of control

O=C(NC(CSC1CCCCO1)C(=O)O)OCc1ccccc1 (stereo not given) (tested in a mixture with another compound)
inactive: [12] 106 % of control | [1] 101 % of control | [2] 97 % of control

OC1C2CC3CC(C2)CC1C3 (stereo not given)
inactive: dose: 100.0 mg/kg/injection, schedule: Q04DX002 (ip), vehicle: Klucel (hydroxypropylcellulose) (HPC) 102 % of control | dose: 200.0 mg/kg/injection, schedule: Q04DX002 (ip), vehicle: Klucel (hydroxypropylcellulose) (HPC) 98 % of control | dose: 400.0 mg/kg/injection, schedule: Q04DX002 (ip), vehicle: Klucel (hydroxypropylcellulose) (HPC) 94 % of control

Clc1cccc(NCCc2ccccc2)c1
inactive: [4] 94 % of control | [5] 94 % of control | dose: 400.0 mg/kg/injection, schedule: Q04DX003 (ip), vehicle: Klucel (hydroxypropylcellulose) (HPC) 102 % of control

NCCc1cnc(N=Nc2ccc(S(=O)(=O)N(CCCl)CCCl)cc2)[nH]1
inactive: [9] 93 % of control | [10] 86 % of control | dose: 400.0 mg/kg/injection, schedule: Q04DX003 (ip), vehicle: saline with Tween-80 89 % of control

Oc1ccc(Cl)c2cccnc12
inactive: dose: 4.0 mg/kg/injection, schedule: Q01DX015 (ip), vehicle: carboxymethylcellulose (CMC) 103 % of control | dose: 8.0 mg/kg/injection, schedule: Q01DX015 (ip), vehicle: carboxymethylcellulose (CMC) 106 % of control | dose: 16.0 mg/kg/injection, schedule: Q01DX015 (ip), vehicle: carboxymethylcellulose (CMC) 103 % of control | dose: 32.0 mg/kg/injection, schedule: Q01DX015 (ip), vehicle: carboxymethylcellulose (CMC) 95 % of control | dose: 64.0 mg/kg/injection, schedule: Q01DX015 (ip), vehicle: carboxymethylcellulose (CMC) 102 % of control | dose: 100.0 mg/kg/injection, schedule: Q01DX001 (ip), vehicle: carboxymethylcellulose (CMC) 90 % of control | dose: 128.0 mg/kg/injection, schedule: Q01DX015 (ip), vehicle: carboxymethylcellulose (CMC) 100 % of control | dose: 200.0 mg/kg/injection, schedule: Q01DX001 (ip), vehicle: carboxymethylcellulose (CMC) 103 % of control

CSC(N)=Nc1ccccc1
inactive: dose: 87.5 mg/kg/injection, schedule: Q01DX009 (ip), vehicle: saline 96 % of control | dose: 175.0 mg/kg/injection, schedule: Q01DX009 (ip), vehicle: saline 100 % of control

COc1ccc(Cl)cc1NC(=O)COc1cc(Cl)c(Cl)cc1Cl
inactive: [11] 101 % of control | dose: 100.0 mg/kg/injection, schedule: Q01DX009 (ip), vehicle: saline with Tween-80 96 % of control | dose: 200.0 mg/kg/injection, schedule: Q01DX009 (ip), vehicle: saline with Tween-80 104 % of control

CN(C)c1ccnc(N(C)C)n1
inactive: dose: 16.0 mg/kg/injection, schedule: Q01DX Z (ip), vehicle: methylcellulose (MC) 96 % of control | dose: 31.0 mg/kg/injection, schedule: Q01DX Z (ip), vehicle: methylcellulose (MC) 98 % of control

CC(=O)Nc1cccc(OC(=O)Nc2cccc(Cl)c2Cl)c1
inactive: [8] 97 % of control | dose: 200.0 mg/kg/injection, schedule: Q01DX009 (ip), vehicle: Klucel (hydroxypropylcellulose) (HPC) 102 % of control | dose: 400.0 mg/kg/injection, schedule: Q01DX009 (ip), vehicle: Klucel (hydroxypropylcellulose) (HPC) 103 % of control

OCC(O)C(O)C(O)C(O)C(c1ccc(Br)cc1)c1ccc(Br)cc1 (stereo not given)
inactive: [12] 106 % of control | [1] 106 % of control | [2] 101 % of control | [3] 98 % of control

CCOC(=O)C(OCc1ccccc1)(C(=O)NCCc1ccc(OC)c(OC)c1)C(C)C (stereo not given)
inactive: dose: 25.0 mg/kg/injection, schedule: Q01DX009 (ip), vehicle: other 108 % of control | dose: 50.0 mg/kg/injection, schedule: Q01DX009 (ip), vehicle: other 108 % of control | dose: 100.0 mg/kg/injection, schedule: Q01DX009 (ip), vehicle: other 103 % of control | dose: 200.0 mg/kg/injection, schedule: Q01DX009 (ip), vehicle: other 99 % of control | dose: 400.0 mg/kg/injection, schedule: Q01DX009 (ip), vehicle: other 91 % of control

c1ccc(SCc2ccncc2)nc1
inactive: [1] 100 % of control | [2] 92 % of control | [3] 88 % of control
